Experiments:
[1] = test system: PD-L1 aAPC/CHO-K1 cells and Jurkat-PD-1-NFAT effector cells; assay: Nuclear factor of activated T-cells (NFAT) assay; assay type: cell-based; conditions: Cricetulus griseus, CHO-K1
Method in brief: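 CHO-K1 cells expressing PD-L1 aAPC were co-cultured with Jurkat-PD-1-NFAT effector cells in RPMI 1640 with 1% FBS and compound (0.4% DMSO; top concentration 2 μM) for 24 h at 37 °C. Bio-Glo luminescence was read, fold induction normalised to DMSO wells, and EC50 fitted from percent of control compound activity.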

[2] = test system: U2OS/PD-L1 cells and Jurkat-PD-1-SHP cells; assay: Src homology region 2 domain-containing phosphatase (SHP) assay; assay type: cell-based; conditions: Homo sapiens, U2OS
Method in brief: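 U2OS/PD-L1 and Jurkat-PD-1-SHP cells (5000 each per well) were co-incubated with compound for 2 h at 37 °C in RPMI1640 with 1% FBS, 0.05% DMSO final. PathHunter chemiluminescence was read after 1 h at room temperature, and IC50 was fitted from percent of DMSO-control activity.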

[3] = biological target: PD-L1 (Homo sapiens (Human), UniProt Q9NZQ7); assay: PD-L1 whole blood internalization assay; assay type: cell-based; conditions: 24 HR, PD-L1 expression on CD14+ cells, human interferon γ
[4] = biological target: PD-1/PD-L1 protein/protein interaction (recombinant human PD-L1 and human PD-1) (Homo sapiens (Human), UniProt Q9NZQ7); assay: Homogeneous Time-Resolved Fluorescence (HTRF) PD-1/PD-L1 binding assay
Method in brief: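 Human PD-L1 (19-238, C-His; 10 nM final) and PD-1 (25-167, C-Fc; 3 nM final) preincubated 40 min with inhibitor in PBS pH 7.4, 0.05% Tween-20, 0.1% BSA, 1% DMSO, 25 °C. Eu-anti-human IgG (1 nM) and anti-His-APC (20 nM) added for 60 min; 665/620 nm ratio; IC50 from percent-control curves.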

Sequence of PD-1/PD-L1 protein/protein interaction (recombinant human PD-L1 and human PD-1) (Q9NZQ7 19-238): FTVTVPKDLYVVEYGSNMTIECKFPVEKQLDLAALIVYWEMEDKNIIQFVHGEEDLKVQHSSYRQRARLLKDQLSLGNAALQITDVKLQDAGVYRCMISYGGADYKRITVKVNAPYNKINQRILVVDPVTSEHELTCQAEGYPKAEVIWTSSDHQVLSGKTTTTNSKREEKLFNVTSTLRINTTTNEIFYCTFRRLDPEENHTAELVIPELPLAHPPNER
Sequence of PD-L1 (Q9NZQ7 19-290): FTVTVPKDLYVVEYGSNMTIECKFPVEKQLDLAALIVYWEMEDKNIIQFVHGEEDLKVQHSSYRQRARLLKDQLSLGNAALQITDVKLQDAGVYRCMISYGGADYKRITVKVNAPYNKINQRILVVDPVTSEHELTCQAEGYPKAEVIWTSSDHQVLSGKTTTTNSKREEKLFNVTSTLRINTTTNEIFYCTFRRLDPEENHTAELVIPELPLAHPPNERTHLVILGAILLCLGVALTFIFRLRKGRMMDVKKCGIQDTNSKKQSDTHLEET

| IC50 [2] | IC50 [3] | IC50 [4] | SMILES | EC50 [1] |
| --- | --- | --- | --- | --- |
| ≤ 10 nM | 10 to 100 nM | ≤ 5 nM | Cc1c(NC(=O)c2nc3c(n2C)CCN(CCC24CCC(C(=O)O)(CC2)C4)C3)cccc1-c1cccc(NC(=O)c2nc3c(n2C)CCN(C[C@@H](C)O)C3)c1Cl [Example 41, (R)-4-(2-(2-((2′-chloro-3′-(5-(2-hydroxypropyl)-1-methyl-4,5,6,7-tetrahydro-1H-imidazo[4,5-c]pyridine-2-carboxamido)-2-methyl-[1,1′-biphenyl]-3-yl)carbamoyl)-1-methyl-1,4,6,7-tetrahydro-5H-imidazo[4,5-c]pyridin-5-yl)ethyl)bicyclo[2.2.1]heptane-1-carboxylic Acid] | 10 to 100 nM |
| ≤ 10 nM | 10 to 100 nM | ≤ 5 nM | Cn1c(C(=O)Nc2cccc(-c3cccc(NC(=O)c4nc5c(n4C)CCN([C@H]4CC[C@](C)(C(=O)O)CC4)C5)c3Cl)c2Cl)nc2c1CCN(CCC13CCC(C(=O)O)(CC1)C3)C2 [Example 66, 4-(2-(2-((3′-(5-(trans-4-carboxy-4-methylcyclohexyl)-1-methyl-4,5,6,7-tetrahydro-1H-imidazo[4,5-c]pyridine-2-carboxamido)-2,2′-dichloro-[1,1′-biphenyl]-3-yl)carbamoyl)-1-methyl-1,4,6,7-tetrahydro-5H-imidazo[4,5-c]pyridin-5-yl)ethyl)bicyclo[2.2.1]heptane-1-carboxylic Acid] | ≤ 10 nM |
